Measurements published in US6667387B1, “HCV core peptides” (priority 1992, dated 2003).
Ends that are not written are not given here. * marks the point of attachment. Biotin = O=C1N[C@H]2[C@H](CS[C@H]2CCCCC(=O)*)N1

Tests used:
[1] = system: antibodies in sera from HCV-seropositive donors; assay: ELISA with HCV antibody-positive sera (biotinylated peptides on streptavidin- or avidin-coated plates, unbiotinylated peptides coated directly); format: binding, human; conditions: for PEPTIDE ELISA (O.D.): Table 12, biotinylated 20-mers
Outline: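 Peptides coated either directly at 2–5 or 3 μg/ml in carbonate buffer pH 9.6, or biotinylated at 1 μg/ml on streptavidin-coated wells (3 μg/ml). Plates casein-blocked, then human sera (1:100 or 1:20) incubated 1 h at 37° C. Bound antibody detected with HRP anti-human Ig/TMB, read as OD450.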

[2] = ELISA with seronegative / negative control sera (specificity); format: binding, human
Outline: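 Specificity readout is OD at 450 nm (HRP goat anti-human Ig, TMB/H2O2, sulfuric acid stop), with ≥0.250 counted positive. Seronegative donor sera (typically 1:100, 1 h, 37° C) were applied to casein-blocked wells coated with peptide directly or via streptavidin capture of biotinylated peptide.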

[3] = Table 8, serum 8243 (HCV), Avidin
[4] = Table 8, serum 8247 (HCV), Avidin
[5] = Table 8, serum 8248 (HCV), Avidin
[6] = Table 8, serum 8269 (HCV), Avidin
[7] = Table 8, serum 8273 (HCV), Avidin
[8] = Table 8, serum 8278 (HCV), Avidin
[9] = Table 8, serum 8285 (HCV), Avidin
[10] = Table 8, serum 8290 (HCV), Avidin
[11] = Table 8, serum 8291 (HCV), Avidin
[12] = Table 8, serum 1782 (blood donor), Avidin
[13] = Table 8, serum 1784 (blood donor), Avidin
[14] = Table 8, serum 1785 (blood donor), Avidin
[15] = Table 8, serum 1794 (blood donor), Avidin

## ETWKKPDYEPPVVHGCPLPP
[1]; Table 4G, serum 1, 20-fold dilution
  optical density (450 nm): 2.691
[1]; Table 4G, serum 33, 20-fold dilution
  optical density (450 nm): 1.813
[1]; Table 4G, serum 39, 20-fold dilution
  optical density (450 nm): 0.213
[1]; Table 4G, serum 47, 20-fold dilution
  optical density (450 nm): 2.611
[1]; Table 4G, serum 79, 20-fold dilution
  optical density (450 nm): 2.105
[1]; Table 4G, serum 83, 20-fold dilution
  optical density (450 nm): 1.232
[1]; Table 4G, serum 88, 20-fold dilution
  optical density (450 nm): 1.858
[1]; Table 4G, serum 89, 20-fold dilution
  optical density (450 nm): 2.309
[1]; Table 4G, serum 91, 20-fold dilution
  optical density (450 nm): 1.132
[1]; Table 4G, serum 99, 20-fold dilution
  optical density (450 nm): 1.526
[1]; Table 4G, serum 104, 20-fold dilution
  optical density (450 nm): 1.998
[1]; Table 4G, serum 105, 20-fold dilution
  optical density (450 nm): 2.053
[1]; Table 4G, serum 110, 20-fold dilution
  optical density (450 nm): 2.065
[1]; Table 4G, serum 111, 20-fold dilution
  optical density (450 nm): 1.542
[1]; Table 4G, serum 112, 20-fold dilution
  optical density (450 nm): 1.408
[1]; Table 4G, serum 116, 20-fold dilution
  optical density (450 nm): 1.978
[1]; Table 4G, serum 120, 20-fold dilution
  optical density (450 nm): 2.031
[1]; Table 5, sample 8242 (positive), peptide concentration 0.01 micrograms per milliliter, listed as HCV peptide XVIII
  optical density (450 nm): 1.185
[1]; Table 5, sample 8242 (positive), peptide concentration 0.03 micrograms per milliliter, listed as HCV peptide XVIII
  optical density (450 nm): 1.188
[1]; Table 5, sample 8242 (positive), peptide concentration 0.1 micrograms per milliliter, listed as HCV peptide XVIII
  optical density (450 nm): 0.946
[1]; Table 5, sample 8242 (positive), peptide concentration 0.3 micrograms per milliliter, listed as HCV peptide XVIII
  optical density (450 nm): 0.873
[1]; Table 5, sample 8242 (positive), peptide concentration 1.0 micrograms per milliliter, listed as HCV peptide XVIII
  optical density (450 nm): 0.839
[1]; Table 5, sample 8242 (positive), peptide concentration 3.0 micrograms per milliliter, listed as HCV peptide XVIII
  optical density (450 nm): 0.749
[1]; Table 5, sample 8243 (positive), peptide concentration 0.01 micrograms per milliliter, listed as HCV peptide XVIII
  optical density (450 nm): 0.462
[1]; Table 5, sample 8243 (positive), peptide concentration 0.03 micrograms per milliliter, listed as HCV peptide XVIII
  optical density (450 nm): 0.611
[1]; Table 5, sample 8243 (positive), peptide concentration 0.1 micrograms per milliliter, listed as HCV peptide XVIII
  optical density (450 nm): 0.661
[1]; Table 5, sample 8243 (positive), peptide concentration 0.3 micrograms per milliliter, listed as HCV peptide XVIII
  optical density (450 nm): 0.629
[1]; Table 5, sample 8243 (positive), peptide concentration 1.0 micrograms per milliliter, listed as HCV peptide XVIII
  optical density (450 nm): 0.627
[1]; Table 5, sample 8243 (positive), peptide concentration 3.0 micrograms per milliliter, listed as HCV peptide XVIII
  optical density (450 nm): 0.671
[1]; Table 5, sample 8318 (positive), peptide concentration 0.01 micrograms per milliliter, listed as HCV peptide XVIII
  optical density (450 nm): 1.711
[1]; Table 5, sample 8318 (positive), peptide concentration 0.03 micrograms per milliliter, listed as HCV peptide XVIII
  optical density (450 nm): 2.308
[1]; Table 5, sample 8318 (positive), peptide concentration 0.1 micrograms per milliliter, listed as HCV peptide XVIII
  optical density (450 nm): 2.409
[1]; Table 5, sample 8318 (positive), peptide concentration 0.3 micrograms per milliliter, listed as HCV peptide XVIII
  optical density (450 nm): 2.392
[1]; Table 5, sample 8318 (positive), peptide concentration 1.0 micrograms per milliliter, listed as HCV peptide XVIII
  optical density (450 nm): 2.396
[1]; Table 5, sample 8318 (positive), peptide concentration 3.0 micrograms per milliliter, listed as HCV peptide XVIII
  optical density (450 nm): 2.391
[1]; Table 5, sample 8326 (positive), peptide concentration 0.01 micrograms per milliliter, listed as HCV peptide XVIII
  optical density (450 nm): 1.848
[1]; Table 5, sample 8326 (positive), peptide concentration 0.03 micrograms per milliliter, listed as HCV peptide XVIII
  optical density (450 nm): 2.219
[1]; Table 5, sample 8326 (positive), peptide concentration 0.1 micrograms per milliliter, listed as HCV peptide XVIII
  optical density (450 nm): 2.331
[1]; Table 5, sample 8326 (positive), peptide concentration 0.3 micrograms per milliliter, listed as HCV peptide XVIII
  optical density (450 nm): 2.331
[1]; Table 5, sample 8326 (positive), peptide concentration 1.0 micrograms per milliliter, listed as HCV peptide XVIII
  optical density (450 nm): 2.331
[1]; Table 5, sample 8326 (positive), peptide concentration 3.0 micrograms per milliliter, listed as HCV peptide XVIII
  optical density (450 nm): 2.315
[1]; [3]
  optical density (450 nm): 0.118
[1]; [4]
  optical density (450 nm): 0.046
[1]; [5]
  optical density (450 nm): 0.905
[1]; [6]
  optical density (450 nm): 1.513
[1]; [7]
  optical density (450 nm): 0.052
[1]; [8]
  optical density (450 nm): 0.052
[1]; [9]
  optical density (450 nm): 0.146
[1]; [10]
  optical density (450 nm): 2.323
[1]; [11]
  optical density (450 nm): 0.049
[1]; serum 0843
  PEPTIDE ELISA (O.D.): 0.127
[1]; serum 8240
  PEPTIDE ELISA (O.D.): 1.511
[1]; serum 8241
  PEPTIDE ELISA (O.D.): 0.273
[1]; serum 8242
  PEPTIDE ELISA (O.D.): 2.453
[1]; serum 8332
  PEPTIDE ELISA (O.D.): 2.290
[1]; serum 8339
  PEPTIDE ELISA (O.D.): 2.757
[1]; serum 8350
  PEPTIDE ELISA (O.D.): 0.182
[1]; serum 8377
  PEPTIDE ELISA (O.D.): 1.378
[1]; serum 8378
  PEPTIDE ELISA (O.D.): 2.337
[1]; serum 8388
  PEPTIDE ELISA (O.D.): 2.358
[2]; Table 4G, negative serum
  optical density (450 nm): 0.001
[2]; Table 5, sample 1747 (negative), peptide concentration 0.01 micrograms per milliliter, listed as HCV peptide XVIII
  optical density (450 nm): 0.042
[2]; Table 5, sample 1747 (negative), peptide concentration 0.03 micrograms per milliliter, listed as HCV peptide XVIII
  optical density (450 nm): 0.058
[2]; Table 5, sample 1747 (negative), peptide concentration 0.1 micrograms per milliliter, listed as HCV peptide XVIII
  optical density (450 nm): 0.044
[2]; Table 5, sample 1747 (negative), peptide concentration 0.3 micrograms per milliliter, listed as HCV peptide XVIII
  optical density (450 nm): 0.061
[2]; Table 5, sample 1747 (negative), peptide concentration 1.0 micrograms per milliliter, listed as HCV peptide XVIII
  optical density (450 nm): 0.042
[2]; Table 5, sample 1747 (negative), peptide concentration 3.0 micrograms per milliliter, listed as HCV peptide XVIII
  optical density (450 nm): 0.047
[2]; Table 5, sample 1781 (negative), peptide concentration 0.01 micrograms per milliliter, listed as HCV peptide XVIII
  optical density (450 nm): 0.045
[2]; Table 5, sample 1781 (negative), peptide concentration 0.03 micrograms per milliliter
  optical density (450 nm): 0.051
[2]; Table 5, sample 1781 (negative), peptide concentration 0.1 micrograms per milliliter, listed as HCV peptide XVIII
  optical density (450 nm): 0.048
[2]; Table 5, sample 1781 (negative), peptide concentration 0.3 micrograms per milliliter, listed as HCV peptide XVIII
  optical density (450 nm): 0.048
[2]; Table 5, sample 1781 (negative), peptide concentration 1.0 micrograms per milliliter, listed as HCV peptide XVIII
  optical density (450 nm): 0.048
[2]; Table 5, sample 1781 (negative), peptide concentration 3.0 micrograms per milliliter, listed as HCV peptide XVIII
  optical density (450 nm): 0.053
[2]; [12]
  optical density (450 nm): 0.053
[2]; [13]
  optical density (450 nm): 0.047
[2]; [14]
  optical density (450 nm): 0.047
[2]; [15]
  optical density (450 nm): 0.104

## Bio-Gly-Gly-Tyr-Asn-Lys-Arg-Lys-Arg-Ile-His-Ile-Gly-Pro-Gly-Arg-Ala-Phe-Tyr-Thr-Thr-Lys-Asn-Ile-Ile-Gly-NH2 (Biotin-GGYNKRKRIHIGPGRAFYTTKNIIG-NH2) [V3-mn Bio]
[1]; [3]
  optical density (450 nm): 0.114
[1]; [4]
  optical density (450 nm): 0.052
[1]; [5]
  optical density (450 nm): 0.048
[1]; [6]
  optical density (450 nm): 0.056
[1]; [7]
  optical density (450 nm): 0.056
[1]; [8]
  optical density (450 nm): 0.053
[1]; [9]
  optical density (450 nm): 0.143
[1]; [10]
  optical density (450 nm): 0.050
[1]; [11]
  optical density (450 nm): 0.053
[2]; Table 2, negative control
  optical density (450 nm): 0.069
[2]; Table 3, Control, peptide bound to avidin
  optical density (450 nm): 0.063
[2]; Table 3, Control, peptide bound to streptavidin
  optical density (450 nm): 0.050
[2]; [12]
  optical density (450 nm): 0.059
[2]; [13]
  optical density (450 nm): 0.046
[2]; [14]
  optical density (450 nm): 0.048
[2]; [15]
  optical density (450 nm): 0.091

## Bio-Gly-Gly-Gly-Ile-Trp-Gly-Cys-Ser-Gly-Lys-Leu-Ile-Cys-NH2 (Biotin-GGGIWGCSGKLIC-NH2; cysteine pairing not given here) [TM-HIV-1 Bio]
[1]; [3]
  optical density (450 nm): 0.108
[1]; [4]
  optical density (450 nm): 0.042
[1]; [5]
  optical density (450 nm): 0.043
[1]; [6]
  optical density (450 nm): 0.053
[1]; [7]
  optical density (450 nm): 0.053
[1]; [8]
  optical density (450 nm): 0.046
[1]; [9]
  optical density (450 nm): 0.134
[1]; [10]
  optical density (450 nm): 0.045
[1]; [11]
  optical density (450 nm): 0.048
[2]; Table 1, serum 180, seronegative donor
  optical density (450 nm): 0.005
[2]; Table 1, serum 194, seronegative donor
  optical density (450 nm): 0.000
[2]; Table 1, serum 195, seronegative donor
  optical density (450 nm): 0.000
[2]; Table 1, serum 204, seronegative donor
  optical density (450 nm): 0.001
[2]; Table 6, serum 1733, seronegative blood donor
  optical density (450 nm): 0.000
[2]; Table 6, serum 1747, seronegative blood donor
  optical density (450 nm): 0.000
[2]; Table 6, serum 1784, seronegative blood donor
  optical density (450 nm): 0.000
[2]; [12]
  optical density (450 nm): 0.052
[2]; [13]
  optical density (450 nm): 0.044
[2]; [14]
  optical density (450 nm): 0.046
[2]; [15]
  optical density (450 nm): 0.124
